Source: patent publication US20110119780A1, “SCREENING FOR NON-GENOTOXIC CARCINOGENS” (priority 2008, published 2011)
“And” between values parts separate entries of the source, which are not always exact repeats. Equal entries are not always repeated.

Key:
[1] = tested on: hepatocellular hypertrophy; assay: H&E staining of liver sections, Chlordane-treated mice; format: in vivo
Excerpt: A 20× objective lens was used to capture the images.

[2] = PXR/CAR-dependent hepatomegaly by PB (body, liver weights); conditions: 80 mg/kg IP x4 days; for Body weight - Day 1 / Body weight - Day 5 / Liver weight / Liver/Body weight Ratio: Mean ± SD
Excerpt: In order to assess whether humanised PXR/CAR mice mimic the response to PB in humans, the huPXR/huCAR and PXRKO/CARKO mouse models were used. The mutant mouse strains were obtained from Artemis. The WT mouse strain C57BL/6J was obtained from Harlan (UK). All animals were between 10 and 16 weeks of age.The following parameters were studied: • Liver/body weight ratios • BrdU incorporation analysed as a measure of cell proliferation • Haematoxylin and eosin (H&E) liver histopathology • Expression and activity of P450s by SDS-PAGE and Western blotting in liver microsomes • Apoptotic indices as analysed by TUNEL assay in the liver
(§1) The study consisted of 6 groups with 10 WT mice per group, 9-10 PXRKO/CARKO mice per group and 9 huPXR/huCAR mice per group (Table 19). […] On Day 1 all animals were dosed with either 80 mg/kg PB/saline or saline alone by intraperitoneal injection for 4 days as detailed in Table 19.
Following treatment with PB or the vehicle, the mice were sacrificed and their livers were removed and weighed.

[3] = tested on: hepatocellular proliferation; assay: Hepatic cell proliferation, BrdU incorporation (S-phase labelling index); conditions: for % mean (S-phase labelling index relative to control of the same mouse line = 100) / % BrDu positive Cells, Mean / % BrDu positive Cells (hepatic S-phase labelling index), individual mouse: PB-treated; for % BrDu positive Cells, Mean: group mean; for % BrDu positive Cells (hepatic S-phase labelling index), individual mouse: individual animals
Description: Osmotic pumps containing BrdU (15 mg/ml/PBS) were implanted into WT, huPXR/huCAR and PXRKO/CARKO mice prior to PB treatment (80 mg/kg/4 days/IP). Livers sections were labelled using a Brdu antibody (Dako). All microscopic images were captured at a magnification of 40×. Data represents random sampling of 10 images per lobes (2) counting approximately 180,000 cells/animal group, as according to Pat-0013-0014. Values are expressed as Mean±SD, n=9-10 for control mice, n=8-9 for PB-treated mice.
as §1
All mouse liver and duodenum sections were analysed for BrdU incorporation as a measure of cell proliferation. The method used was an indirect BrdU labelling assay.

hepatocellular apoptosis = assay: Liver in situ cell death, TUNEL labelling assay (apoptotic indices); format: in vivo; conditions: WT, huPXR/huCAR and PXRKO/CARKO mice; Student's t-test
Excerpt: Livers sections were labelled using a TUNEL in situ cell detection kit (Roche). […] Data represents random sampling of 20 images per lobes (2) counting approximately 380,000 cells/animal group.
However, no such consistency has been observed in mice. An indirect TUNEL labelling assay was used to analyse hepatic in situ death (FIG. 9/Table 21). The present study has shown a marker variation in apoptotic indices in mouse liver. Thus, small (e.g. 50%) compound-induced decreases, upon a low background, were not readily demonstrable.

[4] = tested on: hepatocellular hypertrophy; assay: H&E analysis of liver sections, PB; format: in vivo, mice; conditions: 80 mg/kg IP x4 days
Excerpt: Portal vein (P) and central vein (C) are labelled. A 20× objective lens was used to capture the images.
Two samples of the liver (one from the lobe, one from the median lobe) and one sample of the small intestine were taken and preserved in 4% neutral buffered formaldehyde (NBF). The preserved liver samples of all mice of all groups were trimmed, processed and embedded in paraffin. The paraffin-embedded samples were sent to Progenix, Inverkeithing, UK where they were sectioned at a nominal thickness of about 5 æm and then stained with haematoxylin and eosin (H&E). One section of each organ sample was examined by Dr. Ortwin Vogel, Consultant Pathologist, Kiel, Germany. Subsequent to his histopatholoical analysis of all H&E stained mouse livers and small intestines, Dr. Vogel reported the following finding;

Cyp3a11 = assay: Hepatic P450 induction: benzyloxyquinoline debenzylation (BQ) in liver microsomes; format: in vivo, mouse; conditions: 80 mg/kg IP x4 days
Description: (§2) Each assay was performed on individual liver microsomes. Values are expressed as Mean±SD (n=9/10).

Cyp2b10 = assay: Hepatic P450 induction: PROD and BROD in liver microsomes; format: in vivo, mouse; conditions: 80 mg/kg IP x4 days
Description: as §2
BROD and PROD are markers of Cyp2b10 activity in the mouse. […] However, PROD or BROD activities were not altered in the PXRKO/CARKO mice upon exposure to PB. Overall, PB induced P450 catalytic activities in the WT and huPXR/huCAR mouse lines, but not in the animals which were devoid of these receptors.

Cyp1a1/1a2 = assay: Hepatic P450 induction: MROD and EROD in liver microsomes; conditions: 80 mg/kg IP x4 days
Description: as §2
P450 catalytic activities in the liver microsomal fractions were quantified. For the quantification of mouse Cyp2b10 and Cyp3a11 activities, the dealkylation of pentoxyresofurin (PROD) and the debenzylation of benzyloxyquinoline (BQ) activities, respectively. In addition, […] (BROD), methoxyresorufin-O-demethylase (MROD) and 7-ethoxyresorufin-)-deethylase (EROD) activities were also measured and evaluated (see FIG. 11).
EROD activity is indicative of Cyp1a1/1a2 and Cyp1b1 in the mouse, whereas MROD is a substrate for Cyp1a2. However, other isoforms may be contributing to the measured activities.

Cyp2b10 and Cyp3a11 = Cyp2b10 and Cyp3a11 protein in pooled liver microsomes by Western blotting, PB; format: in vivo, mouse
Description: Liver microsomes (0.3 ug) from each animal were pooled (n=9/10) for wild type, huPXR/huCAR and PXRKO/CARKO mice and characterised for Cyp2b10 and Cyp3a11 by immunoblotting using rabbit polyclonal CH4 (1:2000 dilution) and CH32 antibodies (1:2000 dilution), respectively (C. Henderson, University of Dundee, UK); +ve, control was either purified recombinant his-tagged Cyp3a11 membranes (0.1 pmol/u.l) or purified recombinant his-tagged Cyp2b10 membranes (O.Olpmol/u.l). Blots were developed using ECL and exposed for 30 secs.

Cyp3a11 and Cyp2b10 = assay: Inductive effect of Phenobarbital in a panel of PXR/CAR knockout and humanised mice
[5] = Pentobarbitone sleeping test; format: in vivo, mice; conditions: male, single intraperitoneal dose 25 mg/kg
Description: In this experiment, the activity of these transcription factors in combination was determined by measuring the barbiturate induced sleeping time. Sleeping time has been known for many years to be directly proportional to the hepatic cytochrome P450 activity and this activity can be at least in part ascribed to the P450 levels in the liver determined by CAR and PXR function.
Mice were given a single intraperitoneal dose of Narcoren (sodium pentobarbitone; purchased via a Veterinary Consultant; distributed by Merial GmbH, Germany) at 25 mg/kg of body weight. The time taken for the mice to lose, and subsequently to regain, their righting reflex was measured.

## ClC1=C(Cl)C2(Cl)C3C(Cl)C(Cl)CC3C1(Cl)C2(Cl)Cl (centres unmarked) [Chlordane]
[1]; PXRKO/CARKO mice
  hypertrophy on H&E staining: not
[1]; WT and hPXR_old/hCAR mice
  liver finding on H&E staining: hypertrophy

## CCC1(c2ccccc2)C(=O)NC(=O)NC1=O [PB, Phenobarbital]
[2]; PXRKO/CARKO mice
  Body weight - Day 1, % mean own control: (100 ± 8) %
  Body weight - Day 5, % mean own control: (98 ± 8) %
  Liver weight, % mean own control: (98 ± 16) %
  Liver/Body weight Ratio, % mean own control: (100 ± 9) %
  Body weight - Day 1: 27.2 ± 2.2 g
  Body weight - Day 5: 26.6 ± 2.2 g
  Liver weight: 1.42 ± 0.23 g
  Liver/Body weight Ratio: 5.3 ± 0.4
[2]; WT mice
  Body weight - Day 1, % mean own control: (106 + 6) %
  Body weight - Day 5, % mean own control: (84 ± 5) %
  Liver weight, % mean own control: (101 ± 6) %
  Body weight - Day 1: 26.4 ± 1.8 g
  Body weight - Day 5: 23.2 ± 1.3 g
  Liver weight: 1.44 ± 0.09 g
  Liver/Body weight Ratio: 6.2 ± 0.2
[2]; huPXR/huCAR mice
  Body weight - Day 1, % mean own control: (104 ± 5) %
  Body weight - Day 5, % mean own control: (99 ± 6) %
  Liver weight, % mean own control: (121 ± 11) %
  Body weight - Day 1: 26.3 ± 1.2 g
  Body weight - Day 5: 25.4 ± 1.5 g
  Liver weight: 1.69 ± 0.16 g
  Liver/Body weight Ratio: 6.7 ± 0.6
[3]; PXRKO/CARKO mice
  % mean (S-phase labelling index relative to control of the same mouse line = 100): 144%
  % BrDu positive Cells, Mean: 2.83%
  % BrDu positive Cells (hepatic S-phase labelling index), individual mouse: 2.16% and 1.98% and 1.82% and 2.30% and 3.77% and 5.10% and 3.71% and 1.88% and 3.06% and 2.51%
[3]; WT mice
  % mean (S-phase labelling index relative to control of the same mouse line = 100): 531%
  % BrDu positive Cells, Mean: 9.30%
  % BrDu positive Cells (hepatic S-phase labelling index), individual mouse: 9.45% and 5.54% and 16.69% and 6.32% and 9.50% and 8.09% and 7.64% and 13.60%
[3]; WT mice, 80 mg/kg IP x4 days, BrdU
  hepatocellular labelling index (S-phase), increase: approximately 5 fold
[3]; huPXR/huCAR mice
  % mean (S-phase labelling index relative to control of the same mouse line = 100): 104%
  % BrDu positive Cells, Mean: 2.00%
  % BrDu positive Cells (hepatic S-phase labelling index), individual mouse: 0.37% and 0.-18% and 1.19% and 1.86% and 3.GO and 1.98% and 3.18% and 3.24% and 2.13%
[3]; huPXR/huCAR or PXRKO/CARKO mice, 80 mg/kg IP x4 days
  effect on cell proliferation (BrdU labelling): no effect
Hepatocellular apoptosis
  Hepatic apoptotic indices (TUNEL), PB-treated vs control: no statistical significance found
[4]; PXRKO/CARKO mice
  hepatocellular hypertrophy (H&E): no unequivocal evidence
  liver growth response (hypertrophy, hyperplasia), conclusion: did not induce hepatomegaly
[4]; WT mice
  liver growth response (hypertrophy, hyperplasia), conclusion: induced hypertrophy and hyperplasia
[4]; huPXR/huCAR and WT animals
  centrilobular hepatocellular hypertrophy (H&E): slight to moderate
[4]; huPXR/huCAR mice
  liver growth response (hypertrophy, hyperplasia), conclusion: induced hypertrophy but not hyperplasia
Cyp3a11; PXRKO/CARKO mice
  Cyp3a11 induction (BQ activity): absence of Cyp3a11 induction
Cyp3a11; WT animals, liver microsomes
  BQ activity: marginal increase
Cyp3a11; huPXR/huCAR mice, liver microsomes
  BQ activity, increase: 5 fold
Cyp2b10; PXRKO/CARKO mice
  PROD or BROD activities: not altered
Cyp2b10; WT and huPXR/huCAR mouse lines, at similar levels
  Cyp2b10 induction (BROD and PROD activities): marker Cyp2b10 induction was observed
Cyp1a1/1a2; PXRKO/CARKO line
  MROD and EROD enzyme activities: no increase
Cyp1a1/1a2; WT and huPXR/huCAR mice
  MROD and EROD enzyme activities: increased
Cyp2b10 and Cyp3a11; PXRKO/CARKO animals
  Cyp2b10 and Cyp3a11 protein induced (Western blotting): not
Cyp2b10 and Cyp3a11; WT and humanised mouse lines
  Cyp2b10 and Cyp3a11 protein (Western blotting): induced
Cyp3a11 and Cyp2b10
  activation of Cyp3a11 and Cyp2b10 in vivo: predominantly CAR-dependent

## CCCC(C)C1(CC)C(=O)NC(=O)NC1=O (centres unmarked) [pentobarbitone, sodium pentobarbitone]
[5]; PXR/CAR hum (double humanised) mouse
  Sleeping time: 34 min
[5]; Wt mouse
  Sleeping time: 21 min
